Experimental data taken from ChEMBL document CHEMBL3779781, “New direct inhibitors of InhA with antimycobacterial activity based on a tetrahydropyran scaffold” (Eur J Med Chem, 2016).
Values after ≈ are worked out from the molar mass of the structure shown.

Legend:
[1] = Cytotoxicity against human HepG2 cells by ATP bioluminescence assay; format: cell-based; details: read-out: TD50 (the source's name)
[2] = Inhibition of Mycobacterium tuberculosis InhA using 2-trans-decenoyl-CoA as substrate by fluorimetric analysis in presence of NADH
[3] = Kinetic solubility of compound in DMSO/phosphate buffered saline at pH7.4 by chemiluminescent nitrogen detection method; format: physicochemical; details: pH 7.4, read-out: Kinetic_solubility
[4] = system: Mycobacterium tuberculosis; assay: Antimycobacterial activity against Mycobacterium tuberculosis H37Rv ATCC 25618 after 2 weeks; format: functional; details: H37Rv ATCC 25618, 336 h
[5] = system: Mycobacterium tuberculosis; assay: Antimycobacterial activity against Mycobacterium tuberculosis H37Rv; format: functional
[6] = system: Haemophilus influenzae; assay: Antibacterial activity against Haemophilus influenzae Q1 by broth microdilution assay; format: functional
[7] = system: Enterococcus faecium; assay: Antibacterial activity against Enterococcus faecium X7501 by broth microdilution assay; format: functional
[8] = system: Moraxella catarrhalis; assay: Antibacterial activity against Moraxella catarrhalis 1502 by broth microdilution assay; format: functional
[9] = system: Staphylococcus aureus; assay: Antibacterial activity against Staphylococcus aureus WCUH29 fmt by broth microdilution assay; format: functional
[10] = system: Enterococcus faecalis; assay: Antibacterial activity against Enterococcus faecalis 1 by broth microdilution assay; format: functional
[11] = target: Voltage-gated inwardly rectifying potassium channel KCNH2 (Homo sapiens, UniProt Q12809); assay: Inhibition of human ERG by QPatch assay
Sequence of Voltage-gated inwardly rectifying potassium channel KCNH2 (Q12809 whole entry): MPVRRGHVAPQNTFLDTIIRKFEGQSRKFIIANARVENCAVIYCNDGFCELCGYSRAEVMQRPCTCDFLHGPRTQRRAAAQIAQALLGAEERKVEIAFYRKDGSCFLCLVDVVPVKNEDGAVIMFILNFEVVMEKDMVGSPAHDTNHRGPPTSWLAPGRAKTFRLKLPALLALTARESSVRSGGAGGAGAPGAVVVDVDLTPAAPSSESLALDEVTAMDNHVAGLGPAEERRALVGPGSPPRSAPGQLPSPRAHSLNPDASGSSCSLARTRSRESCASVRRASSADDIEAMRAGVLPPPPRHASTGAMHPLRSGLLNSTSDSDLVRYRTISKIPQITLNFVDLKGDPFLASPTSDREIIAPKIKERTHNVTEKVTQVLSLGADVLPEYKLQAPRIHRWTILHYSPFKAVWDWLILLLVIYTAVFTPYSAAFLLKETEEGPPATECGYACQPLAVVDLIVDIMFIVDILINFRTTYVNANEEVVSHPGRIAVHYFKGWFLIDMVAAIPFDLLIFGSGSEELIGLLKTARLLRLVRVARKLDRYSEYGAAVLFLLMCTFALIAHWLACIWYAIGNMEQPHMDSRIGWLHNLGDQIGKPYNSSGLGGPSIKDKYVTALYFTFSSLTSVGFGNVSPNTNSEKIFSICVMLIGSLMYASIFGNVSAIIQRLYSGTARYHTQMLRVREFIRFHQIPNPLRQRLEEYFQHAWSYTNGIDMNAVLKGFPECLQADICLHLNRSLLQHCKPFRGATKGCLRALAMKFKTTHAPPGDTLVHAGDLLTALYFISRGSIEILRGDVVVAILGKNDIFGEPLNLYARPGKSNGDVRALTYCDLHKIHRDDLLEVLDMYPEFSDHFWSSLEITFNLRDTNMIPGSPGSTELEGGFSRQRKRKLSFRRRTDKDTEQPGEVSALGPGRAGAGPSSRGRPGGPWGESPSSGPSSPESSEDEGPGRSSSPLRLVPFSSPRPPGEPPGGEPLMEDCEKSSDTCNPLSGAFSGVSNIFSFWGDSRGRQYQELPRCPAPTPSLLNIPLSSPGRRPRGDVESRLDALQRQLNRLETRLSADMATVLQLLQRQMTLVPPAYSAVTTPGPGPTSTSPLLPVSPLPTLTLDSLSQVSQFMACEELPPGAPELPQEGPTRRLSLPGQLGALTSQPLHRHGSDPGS

[12] = system: Haemophilus influenzae; assay: Antibacterial activity against Haemophilus influenzae H128 by broth microdilution assay; format: functional
[13] = system: Mycobacterium tuberculosis; assay: Antimycobacterial activity against Mycobacterium tuberculosis H37Rv ATCC 25618 infected in human THP1 cells assessed as reduction in cell viability after 5 days by luciferase reporter gene assay; format: functional; details: H37Rv ATCC 25618, THP-1, 120 h
[14] = system: Staphylococcus aureus; assay: Antibacterial activity against Staphylococcus aureus WCUH29 by broth microdilution assay; format: functional
[15] = system: Streptococcus pneumoniae; assay: Antibacterial activity against Streptococcus pneumoniae ERY2 by broth microdilution assay; format: functional
[16] = system: Streptococcus pyogenes; assay: Antibacterial activity against Streptococcus pyogenes 1307006P by broth microdilution assay; format: functional
[17] = system: Streptococcus pyogenes; assay: Antibacterial activity against Streptococcus pyogenes 1308007P by broth microdilution assay; format: functional
[18] = Selectivity index, ratio of TD50 for human HepG2 cells to MIC for Mycobacterium tuberculosis H37Rv ATCC 25618; format: toxicity, cell-based; details: read-out: Selectivity Index
[19] = system: Escherichia coli; assay: Antibacterial activity against Escherichia coli 3 by broth microdilution assay; format: functional
[20] = system: Haemophilus influenzae; assay: Antibacterial activity against Haemophilus influenzae H128 with Acr A- genotype by broth microdilution assay; format: functional
[21] = system: Staphylococcus aureus; assay: Antibacterial activity against Staphylococcus aureus Oxford by broth microdilution assay; format: functional
[22] = system: Streptococcus pneumoniae; assay: Antibacterial activity against Streptococcus pneumoniae N1387 by broth microdilution assay; format: functional
[23] = system: Mycobacterium tuberculosis; assay: Antimycobacterial activity against Mycobacterium tuberculosis H37Rv by broth microdilution assay; format: functional
[24] = system: Streptococcus pneumoniae; assay: Antibacterial activity against Streptococcus pneumoniae 1629 by broth microdilution assay; format: functional

| Structure (SMILES) | CC50 [1] [µM] | IC50 [2] [µM] | solubility kinetic [3] [µM] | MIC [4] [µM] | also measured |
| --- | --- | --- | --- | --- | --- |
| Cc1cc(C)n(-c2ccc(C(=O)NCC3(c4nc(-c5ccccc5)cs4)CCOCC3)cc2)n1 | 87.1 | > 100 | 33 (≈ 15.6 µg/mL) | 80 (≈ 37.8 µg/mL) |  |
| O=C(NCC1(c2nc(-c3ccccc3)cs2)CCOCC1)c1ccc(-c2cnco2)cc1 | 79.4 | > 1 | 71 (≈ 31.6 µg/mL) | 125 (≈ 55.7 µg/mL) |  |
| O=C(NCC1(c2nc(-c3ccccc3)cs2)CCOCC1)c1ccc(Nc2nc3ccccc3s2)cc1 | 12.6 | > 10 | 4 (≈ 2.11 µg/mL) | > 125 |  |
| O=C(NCC1(c2nc(-c3ccccc3)cs2)CCOCC1)c1ccc(-n2ccnc2)cc1 | > 100 | > 1 | 193 (≈ 85.8 µg/mL) | > 125 |  |
| NNC(=O)c1ccncc1 [ISONIAZID] |  |  |  |  | MIC [5]: 0.5 µg/mL |
| COc1cccc(-c2csc(C3(CNC(=O)c4ccc(Cn5nc(C)cc5C)cc4)CCOCC3)n2)c1 | 50.1 | 0.323 | 72 (≈ 37.2 µg/mL) | 20 (≈ 10.3 µg/mL) |  |
| Cc1cc(C)n(Cc2ccc(C(=O)NCC3(c4nc(-c5ccccc5)cs4)CCOCC3)cc2)n1 | 100 | 0.02 | 115 (≈ 56 µg/mL) | 11.7 (≈ 5.69 µg/mL) | MIC80 [6]: > 64 µg/mL; MIC80 [7]: > 64 µg/mL; MIC80 [8]: 32 µg/mL (≈ 65.8 µM); MIC80 [9]: > 64 µg/mL; MIC80 [10]: > 64 µg/mL; IC50 [11]: 44.9 µM; MIC80 [12]: > 64 µg/mL; IC90 [13]: 3.98 µM; MIC [5]: 7.8 µM; MIC80 [14]: > 64 µg/mL; MIC80 [15]: > 64 µg/mL; MIC80 [16]: > 64 µg/mL; MIC80 [17]: > 64 µg/mL; selectivity ratio [18]: 8.5; MIC80 [19]: > 64 µg/mL; MIC80 [20]: > 64 µg/mL; MIC80 [21]: > 64 µg/mL; MIC80 [22]: > 64 µg/mL; MIC80 [23]: 5.7 µg/mL (≈ 11.7 µM); MIC80 [24]: > 64 µg/mL |
| Cc1cc(C)n(Cc2ccc(C(=O)NCC3(c4ccccn4)CCOCC3)cc2)n1 | > 100 | > 10 | ≥ 445 | > 125 |  |
| Cn1ccc(Nc2ccc(C(=O)NCC3(c4nc(-c5ccccc5)cs4)CCOCC3)cc2)n1 | 79.4 | 5.56 | 48 (≈ 22.7 µg/mL) | > 125 |  |
| O=C(NCC1(c2nc(-c3ccccc3)cs2)CCOCC1)c1ccc(Nc2ccccn2)cc1 | 63.1 | > 10 | 12 (≈ 5.65 µg/mL) | > 80 |  |
| COc1ccc(C2(CNC(=O)c3ccc(Cn4nc(C)cc4C)cc3)CCOCC2)cc1 | > 100 | 6.38 | ≥ 458 | > 125 |  |
| Cc1cc(C)n(Cc2ccc(C(=O)NCC3(c4ccc5c(c4)OCO5)CCOCC3)cc2)n1 | > 100 | 7.94 | ≥ 478 | 125 (≈ 55.9 µg/mL) |  |
| O=C(NCC1(c2nc(-c3ccccc3)cs2)CCOCC1)c1ccc(CN2CCCCC2)cc1 | 79.4 | > 1 | ≥ 396 | > 125 |  |
| O=C(NCC1(c2nc(-c3ccccc3)cs2)CCOCC1)c1ccc(N2CCOCC2)cc1 | > 100 | > 1 | 138 (≈ 64 µg/mL) | > 125 |  |
| Cc1cc(C)n(Cc2ccc(C(=O)NCC3(c4ccc(-c5ccccc5)cc4)CCOCC3)cc2)n1 | 79.4 | 0.029 | 77 (≈ 36.9 µg/mL) | 16 (≈ 7.67 µg/mL) | selectivity ratio [18]: 5 |
| O=C(NCC1(c2nc(-c3ccccc3)cs2)CCOCC1)c1ccc(-n2cncn2)cc1 | > 100 | > 10 | 191 (≈ 85.1 µg/mL) | 125 (≈ 55.7 µg/mL) |  |
| O=C(NCC1(c2nc(-c3ccccc3)cs2)CCOCC1)c1ccc(Nc2nncs2)cc1 | 63.1 | > 10 | 29 (≈ 13.9 µg/mL) | > 125 |  |
| Cc1cnc(Nc2ccc(C(=O)NCC3(c4nc(-c5ccccc5)cs4)CCOCC3)cc2)s1 | > 100 | > 10 | < 1 | > 80 |  |
| COc1ccccc1-c1csc(C2(CNC(=O)c3ccc(Cn4nc(C)cc4C)cc3)CCOCC2)n1 | 50.1 | 0.036 | 78 (≈ 40.3 µg/mL) | 5 (≈ 2.58 µg/mL) | selectivity ratio [18]: 10 |
| Cn1c(Nc2ccc(C(=O)NCC3(c4nc(-c5ccccc5)cs4)CCOCC3)cc2)nc2ccccc21 | 20 | > 10 | 10 (≈ 5.24 µg/mL) | 94 (≈ 49.2 µg/mL) |  |
